Target: human Cat S (Homo sapiens, UniProt P25774)
Test: Cathepsin enzyme inhibition assay (fluorogenic peptide substrate cleavage)
Assay type: biochemical
Conditions: human Cat S 1 nM; substrate Z-Val-Val-Arg-AMC 20 μM; pH 6.5; fluorescence over 20 minutes
Outline: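 Fluorogenic cleavage of Z-Val-Val-Arg-AMC (20 μM) by 1 nM enzyme in 100 mM potassium phosphate pH 6.5, 5 mM EDTA, 5 mM DTT, 0.001% Triton X-100. Reaction started with substrate; fluorescence (ex 360/em 465 nm) followed over 20 minutes. IC50 by standard methods.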

human Cat S, sequence (P25774 115-331): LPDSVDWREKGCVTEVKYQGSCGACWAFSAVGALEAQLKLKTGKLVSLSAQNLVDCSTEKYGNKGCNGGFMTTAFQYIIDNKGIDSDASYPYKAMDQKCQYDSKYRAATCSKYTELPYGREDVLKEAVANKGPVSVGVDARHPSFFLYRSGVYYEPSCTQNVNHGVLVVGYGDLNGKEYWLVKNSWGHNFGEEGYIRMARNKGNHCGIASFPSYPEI

IC50 | Structure (SMILES)
0.38 nM | Cn1cc(-c2cccc(S(=O)(=O)[C@@H]3C[C@@H](C(=O)NC4(C#N)CC4)[C@H](C(=O)N4CCC(F)(F)C4)C3)c2)cn1 [Example 202, (1R,2R,4R)-2-(3,3-Difluoro-pyrrolidine-1-carbonyl)-4-[3-(1-methyl-1H-pyrazol-4-yl)-benzenesulfonyl]-cyclopentanecarboxylic acid (1-cyano-cyclopropyl)-amide]
0.195 nM | Cc1cc(-c2cccc(S(=O)(=O)[C@@H]3C[C@@H](C(=O)NC4(C#N)CC4)[C@H](C(=O)N4CCC(F)(F)C4)C3)c2)ccn1 [Example 203, (1R,2R,4R)-2-(3,3-Difluoro-pyrrolidine-1-carbonyl)-4-[3-(2-methyl-pyridin-4-yl)-benzenesulfonyl]-cyclopentanecarboxylic acid (1-cyano-cyclopropyl)-amide]
0.135 nM | N#CC1(NC(=O)[C@@H]2C[C@@H](S(=O)(=O)c3cccc(-c4ccnc(Cl)c4)c3)C[C@H]2C(=O)N2CCC(F)(F)C2)CC1 [Example 204, (1R,2R,4R)-4-[3-(2-Chloro-pyridin-4-yl)-benzenesulfonyl]-2-(3,3-difluoro-pyrrolidine-1-carbonyl)-cyclopentanecarboxylic acid (1-cyano-cyclopropyl)-amide]
0.325 nM | Cc1cccc(S(=O)(=O)[C@@H]2C[C@@H](C(=O)NC3(C#N)CC3)[C@H](C(=O)N3CCC(F)(F)C3)C2)c1 [Example 205, (1R,2R,4R)-2-(3,3-Difluoro-pyrrolidine-1-carbonyl)-4-(toluene-3-sulfonyl)-cyclopentanecarboxylic acid (1-cyano-cyclopropyl)-amide]
1.45 nM | CC(=O)N1CCN(c2ccc(S(=O)(=O)[C@@H]3C[C@@H](C(=O)NC4(C#N)CC4)[C@H](C(=O)N4CCC(F)(F)C4)C3)c(Cl)c2)CC1 [Example 208, (1R,2R,4R)-4-[4-(4-Acetyl-piperazin-1-yl)-2-chloro-benzenesulfonyl]-2-(3,3-difluoro-pyrrolidine-1-carbonyl)-cyclopentanecarboxylic acid (1-cyano-cyclopropyl)-amide]
0.54 nM | CC(=O)N1CCN(c2ccc(S(=O)(=O)[C@H]3C[C@@H](C(=O)NC4(C#N)CC4)[C@H](C(=O)N4CCC(F)(F)C4)C3)c(Cl)c2)CC1 [Example 209, (1R,2R,4S)-4-[4-(4-Acetyl-piperazin-1-yl)-2-chloro-benzenesulfonyl]-2-(3,3-difluoro-pyrrolidine-1-carbonyl)-cyclopentanecarboxylic acid (1-cyano-cyclopropyl)-amide]
0.38 nM | N#CC1(NC(=O)[C@@H]2C[C@@H](S(=O)(=O)c3ccc(Cl)cn3)C[C@H]2C(=O)N2CCC(F)(F)C2)CC1 [Example 225, (1R,2R,4R)-4-(5-Chloro-pyridine-2-sulfonyl)-2-(3,3-difluoro-pyrrolidine-1-carbonyl)-cyclopentanecarboxylic acid (1-cyano-cyclopropyl)-amide]
50 nM | N#CC1(NC(=O)[C@@H]2C[C@H](S(=O)(=O)c3ccc(Cl)cn3)C[C@H]2C(=O)N2CCC(F)(F)C2)CC1 [Example 226, (1R,2R,4S)-4-(5-Chloro-pyridine-2-sulfonyl)-2-(3,3-difluoro-pyrrolidine-1-carbonyl)-cyclopentanecarboxylic acid (1-cyano-cyclopropyl)-amide]
0.555 nM | N#CC1(NC(=O)[C@@H]2C[C@@H](S(=O)(=O)c3ccccn3)C[C@H]2C(=O)N2CCC(F)(F)C2)CC1 [Example 227, (1R,2R,4R)-2-(3,3-Difluoro-pyrrolidine-1-carbonyl)-4-(pyridine-2-sulfonyl)-cyclopentanecarboxylic acid (1-cyano-cyclopropyl)-amide]
91 nM | N#CC1(NC(=O)[C@@H]2C[C@H](S(=O)(=O)c3ccccn3)C[C@H]2C(=O)N2CCC(F)(F)C2)CC1 [Example 228, (1R,2R,4S)-2-(3,3-Difluoro-pyrrolidine-1-carbonyl)-4-(pyridine-2-sulfonyl)-cyclopentanecarboxylic acid (1-cyano-cyclopropyl)-amide]
